Data taken from the supplement of paper PMC8671470.

Test system: BV-173
Experiment: cell viability (% survival relative to DMSO control, bortezomib = 0%); higher = less cytotoxic
Conditions: 1000 nM; 72 h
Method in brief: (§1)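 In 384-well plates pre-printed with compounds at 1, 10, 100, 1000 or 10000 nM, duplicate wells received cells from 10 AML and 5 CML lines at densities within the linear growth range. The plates stayed at 37 °C with 5% CO2 for 72 h before CellTiter-Glo luminescence was recorded. Each entry is averaged percent survival. Scaling placed vehicle at 100% and a 10 µM positive control at 0%.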

| Structure (SMILES) | cell viability [%] |
| --- | --- |
| NS(=O)(=O)c1ccc(S(=O)(=O)Nc2cccc3c(Cl)c[nH]c23)cc1 [Indisulam] | 46.6 |
| Cc1nnc(-c2ccc(N3CCC(Oc4ccccc4C(F)(F)F)CC3)nn2)s1 [MF-438] | 137 |
| CCCCCCCCCCCCC/C=C/[C@@H](O)[C@H](CO)N(C)C [N,N-Dimethylsphingosine] | 74.2 |
| Nc1nc(O)c2c(CCc3ccc(C(=O)N[C@@H](CCC(=O)O)C(=O)O)cc3)c[nH]c2n1 [Pemetrexed] | 4.73 |
| C=C1NC(=O)c2cc(CN(C)c3ccc(C(=O)N[C@@H](CCC(=O)O)C(=O)O)s3)ccc2N1 [Raltitrexed] | 1.32 |

Same assay, conditions: 10000 nM; 72 h

| Structure (SMILES) | cell viability [%] |
| --- | --- |
| NS(=O)(=O)c1ccc(S(=O)(=O)Nc2cccc3c(Cl)c[nH]c23)cc1 [Indisulam] | 9.34 |
| Cc1nnc(-c2ccc(N3CCC(Oc4ccccc4C(F)(F)F)CC3)nn2)s1 [MF-438] | 99.4 |
| CCCCCCCCCCCCC/C=C/[C@@H](O)[C@H](CO)N(C)C [N,N-Dimethylsphingosine] | 22.5 |
| Nc1nc(O)c2c(CCc3ccc(C(=O)N[C@@H](CCC(=O)O)C(=O)O)cc3)c[nH]c2n1 [Pemetrexed] | 1.8 |
| C=C1NC(=O)c2cc(CN(C)c3ccc(C(=O)N[C@@H](CCC(=O)O)C(=O)O)s3)ccc2N1 [Raltitrexed] | 3.9 |

Test system: HEL
Experiment: as above
Conditions: 1 nM; 72 h
Method in brief: as §1

| Structure (SMILES) | cell viability [%] |
| --- | --- |
| NS(=O)(=O)c1ccc(S(=O)(=O)Nc2cccc3c(Cl)c[nH]c23)cc1 [Indisulam] | 103 |
| Cc1nnc(-c2ccc(N3CCC(Oc4ccccc4C(F)(F)F)CC3)nn2)s1 [MF-438] | 102 |
| CCCCCCCCCCCCC/C=C/[C@@H](O)[C@H](CO)N(C)C [N,N-Dimethylsphingosine] | 96.2 |
| Nc1nc(O)c2c(CCc3ccc(C(=O)N[C@@H](CCC(=O)O)C(=O)O)cc3)c[nH]c2n1 [Pemetrexed] | 104 |
| C=C1NC(=O)c2cc(CN(C)c3ccc(C(=O)N[C@@H](CCC(=O)O)C(=O)O)s3)ccc2N1 [Raltitrexed] | 100 |

Same assay, conditions: 10 nM; 72 h

| Structure (SMILES) | cell viability [%] |
| --- | --- |
| NS(=O)(=O)c1ccc(S(=O)(=O)Nc2cccc3c(Cl)c[nH]c23)cc1 [Indisulam] | 98.1 |
| Cc1nnc(-c2ccc(N3CCC(Oc4ccccc4C(F)(F)F)CC3)nn2)s1 [MF-438] | 91.9 |
| CCCCCCCCCCCCC/C=C/[C@@H](O)[C@H](CO)N(C)C [N,N-Dimethylsphingosine] | 94.6 |
| Nc1nc(O)c2c(CCc3ccc(C(=O)N[C@@H](CCC(=O)O)C(=O)O)cc3)c[nH]c2n1 [Pemetrexed] | 90.7 |
| C=C1NC(=O)c2cc(CN(C)c3ccc(C(=O)N[C@@H](CCC(=O)O)C(=O)O)s3)ccc2N1 [Raltitrexed] | 109 |

Same assay, conditions: 100 nM; 72 h

| Structure (SMILES) | cell viability [%] |
| --- | --- |
| NS(=O)(=O)c1ccc(S(=O)(=O)Nc2cccc3c(Cl)c[nH]c23)cc1 [Indisulam] | 95.8 |
| Cc1nnc(-c2ccc(N3CCC(Oc4ccccc4C(F)(F)F)CC3)nn2)s1 [MF-438] | 106 |
| CCCCCCCCCCCCC/C=C/[C@@H](O)[C@H](CO)N(C)C [N,N-Dimethylsphingosine] | 103 |
| Nc1nc(O)c2c(CCc3ccc(C(=O)N[C@@H](CCC(=O)O)C(=O)O)cc3)c[nH]c2n1 [Pemetrexed] | 57.8 |
| C=C1NC(=O)c2cc(CN(C)c3ccc(C(=O)N[C@@H](CCC(=O)O)C(=O)O)s3)ccc2N1 [Raltitrexed] | 6.54 |

Same assay, conditions: 1000 nM; 72 h

| Structure (SMILES) | cell viability [%] |
| --- | --- |
| NS(=O)(=O)c1ccc(S(=O)(=O)Nc2cccc3c(Cl)c[nH]c23)cc1 [Indisulam] | 95.9 |
| Cc1nnc(-c2ccc(N3CCC(Oc4ccccc4C(F)(F)F)CC3)nn2)s1 [MF-438] | 122 |
| CCCCCCCCCCCCC/C=C/[C@@H](O)[C@H](CO)N(C)C [N,N-Dimethylsphingosine] | 96.2 |
| Nc1nc(O)c2c(CCc3ccc(C(=O)N[C@@H](CCC(=O)O)C(=O)O)cc3)c[nH]c2n1 [Pemetrexed] | 11.6 |
| C=C1NC(=O)c2cc(CN(C)c3ccc(C(=O)N[C@@H](CCC(=O)O)C(=O)O)s3)ccc2N1 [Raltitrexed] | 6.59 |

Same assay, conditions: 10000 nM; 72 h

| Structure (SMILES) | cell viability [%] |
| --- | --- |
| NS(=O)(=O)c1ccc(S(=O)(=O)Nc2cccc3c(Cl)c[nH]c23)cc1 [Indisulam] | 34.7 |
| Cc1nnc(-c2ccc(N3CCC(Oc4ccccc4C(F)(F)F)CC3)nn2)s1 [MF-438] | 106 |
| CCCCCCCCCCCCC/C=C/[C@@H](O)[C@H](CO)N(C)C [N,N-Dimethylsphingosine] | 0.109 |
| Nc1nc(O)c2c(CCc3ccc(C(=O)N[C@@H](CCC(=O)O)C(=O)O)cc3)c[nH]c2n1 [Pemetrexed] | 7.51 |
| C=C1NC(=O)c2cc(CN(C)c3ccc(C(=O)N[C@@H](CCC(=O)O)C(=O)O)s3)ccc2N1 [Raltitrexed] | 7.77 |

Test system: Mono-Mac-6
Experiment: as above
Conditions: 1 nM; 72 h
Method in brief: as §1

| Structure (SMILES) | cell viability [%] |
| --- | --- |
| NS(=O)(=O)c1ccc(S(=O)(=O)Nc2cccc3c(Cl)c[nH]c23)cc1 [Indisulam] | 101 |
| Cc1nnc(-c2ccc(N3CCC(Oc4ccccc4C(F)(F)F)CC3)nn2)s1 [MF-438] | 101 |
| CCCCCCCCCCCCC/C=C/[C@@H](O)[C@H](CO)N(C)C [N,N-Dimethylsphingosine] | 95.1 |
| Nc1nc(O)c2c(CCc3ccc(C(=O)N[C@@H](CCC(=O)O)C(=O)O)cc3)c[nH]c2n1 [Pemetrexed] | 91.2 |
| C=C1NC(=O)c2cc(CN(C)c3ccc(C(=O)N[C@@H](CCC(=O)O)C(=O)O)s3)ccc2N1 [Raltitrexed] | 94.2 |

Same assay, conditions: 10 nM; 72 h

| Structure (SMILES) | cell viability [%] |
| --- | --- |
| NS(=O)(=O)c1ccc(S(=O)(=O)Nc2cccc3c(Cl)c[nH]c23)cc1 [Indisulam] | 95.3 |
| Cc1nnc(-c2ccc(N3CCC(Oc4ccccc4C(F)(F)F)CC3)nn2)s1 [MF-438] | 100 |
| CCCCCCCCCCCCC/C=C/[C@@H](O)[C@H](CO)N(C)C [N,N-Dimethylsphingosine] | 91.7 |
| Nc1nc(O)c2c(CCc3ccc(C(=O)N[C@@H](CCC(=O)O)C(=O)O)cc3)c[nH]c2n1 [Pemetrexed] | 92.2 |
| C=C1NC(=O)c2cc(CN(C)c3ccc(C(=O)N[C@@H](CCC(=O)O)C(=O)O)s3)ccc2N1 [Raltitrexed] | 108 |

Same assay, conditions: 100 nM; 72 h

| Structure (SMILES) | cell viability [%] |
| --- | --- |
| NS(=O)(=O)c1ccc(S(=O)(=O)Nc2cccc3c(Cl)c[nH]c23)cc1 [Indisulam] | 80.3 |
| Cc1nnc(-c2ccc(N3CCC(Oc4ccccc4C(F)(F)F)CC3)nn2)s1 [MF-438] | 95.5 |
| CCCCCCCCCCCCC/C=C/[C@@H](O)[C@H](CO)N(C)C [N,N-Dimethylsphingosine] | 97.9 |
| Nc1nc(O)c2c(CCc3ccc(C(=O)N[C@@H](CCC(=O)O)C(=O)O)cc3)c[nH]c2n1 [Pemetrexed] | 87.3 |
| C=C1NC(=O)c2cc(CN(C)c3ccc(C(=O)N[C@@H](CCC(=O)O)C(=O)O)s3)ccc2N1 [Raltitrexed] | 19.4 |

Same assay, conditions: 1000 nM; 72 h

| Structure (SMILES) | cell viability [%] |
| --- | --- |
| NS(=O)(=O)c1ccc(S(=O)(=O)Nc2cccc3c(Cl)c[nH]c23)cc1 [Indisulam] | 48.2 |
| Cc1nnc(-c2ccc(N3CCC(Oc4ccccc4C(F)(F)F)CC3)nn2)s1 [MF-438] | 99 |
| CCCCCCCCCCCCC/C=C/[C@@H](O)[C@H](CO)N(C)C [N,N-Dimethylsphingosine] | 89.4 |
| Nc1nc(O)c2c(CCc3ccc(C(=O)N[C@@H](CCC(=O)O)C(=O)O)cc3)c[nH]c2n1 [Pemetrexed] | 23.5 |
| C=C1NC(=O)c2cc(CN(C)c3ccc(C(=O)N[C@@H](CCC(=O)O)C(=O)O)s3)ccc2N1 [Raltitrexed] | 8.75 |

Same assay, conditions: 10000 nM; 72 h

| Structure (SMILES) | cell viability [%] |
| --- | --- |
| NS(=O)(=O)c1ccc(S(=O)(=O)Nc2cccc3c(Cl)c[nH]c23)cc1 [Indisulam] | 11.1 |
| Cc1nnc(-c2ccc(N3CCC(Oc4ccccc4C(F)(F)F)CC3)nn2)s1 [MF-438] | 103 |
| CCCCCCCCCCCCC/C=C/[C@@H](O)[C@H](CO)N(C)C [N,N-Dimethylsphingosine] | 70 |
| Nc1nc(O)c2c(CCc3ccc(C(=O)N[C@@H](CCC(=O)O)C(=O)O)cc3)c[nH]c2n1 [Pemetrexed] | 20.3 |
| C=C1NC(=O)c2cc(CN(C)c3ccc(C(=O)N[C@@H](CCC(=O)O)C(=O)O)s3)ccc2N1 [Raltitrexed] | 9.59 |
